Assay results from publication PMC3739791, “Sonic Hedgehog-Induced Histone Deacetylase Activation Is Required for Cerebellar Granule Precursor Hyperplasia in Medulloblastoma” (PLoS ONE, 2013).

Biological target: T1, HDAC6 (Mus musculus, UniProt Q9Z2V5)
T1 sequence (Q9Z2V5 1-1149): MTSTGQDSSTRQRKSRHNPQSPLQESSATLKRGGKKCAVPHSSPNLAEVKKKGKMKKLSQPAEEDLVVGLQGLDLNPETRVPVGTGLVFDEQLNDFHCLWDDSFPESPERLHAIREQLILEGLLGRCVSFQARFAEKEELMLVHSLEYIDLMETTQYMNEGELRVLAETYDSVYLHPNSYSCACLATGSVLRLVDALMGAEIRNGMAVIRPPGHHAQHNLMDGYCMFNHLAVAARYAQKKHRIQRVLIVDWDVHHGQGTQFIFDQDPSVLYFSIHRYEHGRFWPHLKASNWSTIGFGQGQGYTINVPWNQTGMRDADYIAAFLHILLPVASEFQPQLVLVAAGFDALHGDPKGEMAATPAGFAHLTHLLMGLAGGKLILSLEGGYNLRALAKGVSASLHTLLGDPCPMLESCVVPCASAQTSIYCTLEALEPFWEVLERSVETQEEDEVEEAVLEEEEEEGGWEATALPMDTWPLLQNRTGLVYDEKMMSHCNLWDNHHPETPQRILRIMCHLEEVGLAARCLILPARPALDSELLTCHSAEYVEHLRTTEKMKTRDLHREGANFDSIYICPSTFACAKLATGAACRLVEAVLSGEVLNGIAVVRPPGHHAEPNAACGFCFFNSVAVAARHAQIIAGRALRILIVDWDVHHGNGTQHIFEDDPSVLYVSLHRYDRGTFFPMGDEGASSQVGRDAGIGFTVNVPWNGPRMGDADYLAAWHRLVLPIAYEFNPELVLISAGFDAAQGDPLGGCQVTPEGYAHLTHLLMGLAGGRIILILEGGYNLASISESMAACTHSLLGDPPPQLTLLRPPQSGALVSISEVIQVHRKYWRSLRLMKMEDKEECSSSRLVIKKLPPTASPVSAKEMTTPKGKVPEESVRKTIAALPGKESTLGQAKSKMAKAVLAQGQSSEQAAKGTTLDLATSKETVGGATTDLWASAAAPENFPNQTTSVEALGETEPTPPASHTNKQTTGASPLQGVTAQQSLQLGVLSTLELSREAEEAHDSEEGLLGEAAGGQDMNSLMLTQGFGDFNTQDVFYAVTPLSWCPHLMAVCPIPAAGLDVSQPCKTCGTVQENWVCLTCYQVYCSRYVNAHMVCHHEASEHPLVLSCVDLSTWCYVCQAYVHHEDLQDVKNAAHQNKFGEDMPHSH
Experiment: acetylated tubulin immunohistochemistry in brain sections of treated Smo/Smo mice (readout of HDAC6 inhibition in vivo)
Type: cell-based

## CN1CCc2c(c3ccccc3n2Cc2ccc(C(=O)NO)cc2)C1 [Tubastatin A]
  acetylated tubulin immunohistochemistry in brain sections of treated Smo/Smo mic: although tubulin acetylation as a measure for HDAC6 inhibition was increased (Fig. S4)
